According to patent US12295937B2, “Psychoactive medicines and their use for treating psychiatric and neurological conditions and disorders” (Transcend Therapeutics, Inc., priority 2021, dated 2025):

Columns and labels:
[1] = Rat Forced Swim Test (FST); type: in vivo
Source text: The Forced Swim Test (FST) is a classic, and the most used preclinical behavioral assay to screen compounds with antidepressant-like activity and has high predictive and face validity (Porsolt et al. (1977) Nature 266:730; Borsini and Meli (1988) Psychopharmacology 94:147). The premise of the FST is that when rats are placed into a cylinder filled with water, they will initially try to escape, but over time will become immobile. This increased immobility reflects behavioral despair, modeling a depressive-like state.
Forced Swim Test (EST): In the FST trial, rats were placed in a circular plexiglass container filled with water, with no means of escape. Water temperature was maintained at 22-25° C. and changed for every animal. After an acclimation period, rats were timed for inactivity (failure to struggle), activity, swim time and climbing time. Day 1 consisted of a 15 min acclimation trial, and Day 2 (24 h later) consisted of the 5 min test. A time sampling procedure was employed where animals were observed every 5 sec and scored for immobility, swimming, or climbing. Fluoxetine (10 mg/kg, IP, Sigma Aldrich) or 0.9% sterile saline vehicle (vehicle 3× group) were administered 23.5, 5, and 1 h before testing in the FST. […] The experimenter was blinded to treatment.
Forced Swim Test: In the FST trial, rats were placed in a circular plexiglass container filled with water, with no means of escape. Water temperature was maintained at 22-25° C. and changed for every animal. After an acclimation period, rats were timed for inactivity (failure to struggle), activity, swim time and climbing time. Day 1 consisted of a 15 min acclimation trial, and Day 2 (24 h later) consisted of the 5 min test. A time sampling procedure was employed where animals were observed every 5 sec and scored for immobility, swimming, or climbing. Fluoxetine (10 mg/kg, IP, Sigma Aldrich) or 0.9% sterile saline vehicle (vehicle 3× group) were administered 23.5, 5, and 1 h before testing in the FST. 2C-B (2.5, 10, or 20 mg/kg, IP, Cayman Chemical) or 0.9% saline vehicle (vehicle 1× group) were administered 30 min prior to FST testing. The experimenter was blinded to treatment.
Drug Treatment: Fluoxetine (10 mg/kg, IP, Sigma Aldrich) or 0.9% sterile saline vehicle were administered 23.5, 5, and 1 h before testing in the FST. […] Control animals received fluoxetine alone, methylone alone, or saline vehicle.
Forced Swim Test: In the FST trial, rats were placed in a circular plexiglass container filled with water, with no means of escape. Water temperature was maintained at 22-25° C. and changed for every animal. After an acclimation period, rats were timed for inactivity (failure to struggle), activity, swim time and climbing time. The experimenter and scorer were blind to treatment group. Day 1 consisted of a 15 min acclimation trial, and Day 2 (24 h later) consisted of the 5 min test. A time sampling procedure was employed where animals were observed every 5 sec and scored for immobility, swimming, or climbing.
The FST was performed and scored by an experimenter blind to treatment group according to standard protocols and based on a “modified FST” procedure (Slattery and Cryan (2012) Nat Protoc, 7:1009). Briefly, rats were placed in a circular plexiglass container (29.2 cm diameter, 49.5 cm height) filled with water to a depth of 30 cm so rats could not support themselves by touching the bottom of the tank. Water was maintained at 22-25° C. and was changed for every animal. Day 1 (Training) consisted of a 15 min acclimation trial, and Day 2 (Testing, 24 h later) consisted of the 5 min test. A time sampling procedure was employed where animals were observed every 5 seconds for the duration of the test session (60 counts or 5 minutes) and scored for immobility (defined as the failure to struggle), swimming (defined as a circular movement around the tank), or climbing (defined as an upwards escape behavior). […]

[2] = Mouse fear extinction paradigm (PTSD model); type: in vivo; conditions: 5 mg/kg IP, day 2
Source text: (FIG. 9A) Schematic of experimental design. A single CS-US (tone-shock) pairing on day 1 was followed by 6 CS presentations in a novel context (context B). […] On day 3, the time spent freezing to the CS was quantified. […] (FIG. 9C) No locomotor changes were observed on day 3 (t(26)=1.073, p>0.05). Data are mcan+/−SEM.
FIGS. 10A-10B: MBDB improves fear extinction in a PTSD mouse model. A single CS-US (tone-shock) pairing on day 1 was followed by 6 conditioned stimulus (CS) presentations in a novel context (context B). MBDB or saline vehicle was injected 30 min prior to extinction training on day 2. The time spent freezing to the CS was quantified on day 2. […] Data are mean+/−SEM. N=10 for MBDB group (5 mg/kg, IP) and N=16 for saline control group. **p<0.01 vs. vehicle control group.
Effective PTSD treatments facilitate the disassociation between a traumatic memory and the patient's fear response, making cues for the traumatic memory evoke less of a fear response. This is modeled in the mouse fear extinction paradigm (see FIG. 9A) which takes place over 3 days. […] On day 3 (extinction recall), the mice are “asked” if that tone (CS) still elicits a fearful response, as measured by the time spent freezing when the tone is presented. […]

Open field test (OFT) = type: in vivo, rat; conditions: 0.5-30 mg/kg IP, 30 minutes before 30-min test
Experimental: Method: Consecutive beam breaks and/or video-tracking of time spent in the center versus periphery of the open field are measured. Also measured are parameters such as distance traveled and ambulatory activity (horizontal and vertical) for the duration of the test session.
The open field test (OFT) capitalizes on a rodent's innate fear of open spaces to assess anxiety-like behavior. More time spent in the center of an open field reflects an anxiolytic (anti-anxiety) effect.
Locomotor activity was also measured in the OFT.
To investigate whether MBDB has an anti-anxiety (anxiolytic) effect, rats were dosed with MBDB (0.5-30 mg/kg, IP) or vehicle (saline) and 30-minutes later were tested in the open field for 30 minutes. This anxiety test capitalizes on a rodents' innate fear of wide-open spaces and propensity to hug the walls when placed into the open field. Therefore, a drug that increases the time spent in the center of the open field has anxiolytic activity and predicts utility for treating anxiety in humans.

5-HT/5-HIAA uptake sites = conditions: (±)-MBDB·HCl 25 mg/kg IP every 12 hours for 4 days; cited from earlier work
[3] = Reserpine-induced fibromyalgia model, vonFrey test; type: in vivo, rat; conditions: 2C-B 10 and 20 mg/kg; 60-min post-injection
Experimental: In this Example, male Sprague Dawley rats are tested in a behavioral model of FMA based on the protocol from Nakagura et al. (2009) Pain 146:26. This model uses three daily doses of reserpine (1 mg/kg, SC) or 0.5% acetic acid vehicle to reduce pain thresholds (i.e., increase pain perception) in the Von Frey Test (vFT, procedure outlined below).
Von Frey Test (vFT) procedure: Increasing pain thresholds in this test are consistent with a reduction in pain perception. Prior to the start of dosing, rats are tested for their baseline mechanical pain threshold. For von Frey measurements, animals are placed into wire bottom cubicles with opaque Plexiglas walls, allowing access to the underside of their paws. Animals are habituated to this environment for at least 30 minutes before the start of the von Frey filament application. Static allodynia is measured using Semmes-Weinstein von Frey filaments (Stoelting, Wood Dale, IL). Mechanical allodynia is tested by touching the plantar surface of the animals' left and right hind paws with von Frey filaments which deliver a calibrated amount of force. Each von Frey filament is presented perpendicularly to the plantar surface for approximately 6 seconds of constant application in either ascending or descending strength in a modified up-and-down method (Chaplan et al. (1994) J Neurosci. Meth. 53:55). Stimulation is presented at intervals of several seconds, allowing for apparent resolution of any behavioral responses to previous stimuli. A positive response is noted if the paw is sharply withdrawn. Flinching immediately upon removal of the hair is also considered a positive response. Ambulation is considered an ambiguous response, and, in such cases, the stimulus is repeated.
VonFrey measurements: Animals were placed into wire bottom cubicles with opaque Plexiglas walls, allowing access to the underside of their paws. […] Static allodynia was measured using Semmes-Weinstein von Frey filaments (Stoelting, Wood Dale, IL). […] The average hindpaw thresholds were determined 60-min post-injection. […]

[4] = Cisplatin chemotherapy-induced peripheral neuropathy (CIPN) model, VonFrey test; type: in vivo, mouse
Experimental: Methods: Male C57Bl/6 mice aged 12-16 weeks were used. Cisplatin (2.5 mg/kg) or vehicle was administered on days 1-5 and 11-15.
Vehicle, sub-chronic 2C-B (5 mg/kg once daily days 17-23) or acute 2C-B (20 mg/kg once on day 17) was then administered IP (N=16-18/group). VonFrey testing took place on day 17 (30 min post-dose) and days 21 and 24 (pre-dose) to monitor the effects of 2C-B in cisplatin treated animals, compared with animals receiving cisplatin+vehicle or vehicle+vehicle.
For von Frey measurements, animals were placed into wire bottom cubicles with opaque Plexiglas walls, allowing access to the underside of their paws. Animals were habituated to this environment for at least 30 minutes before the start of the von Frey filament application. Static allodynia was measured using Semmes-Weinstein von Frey filaments (Stoelting, Wood Dale, IL). Mechanical allodynia was tested by touching the plantar surface of the animals' right and left hind paws with von Frey filaments which deliver a calibrated amount of force (0.07, 0.16, 0.4, 0.6. 1.0, 2.0, 4.0, 6.0 g). Each von Frey filament was presented perpendicularly to the plantar surface for approximately 6 seconds of constant application in either ascending or descending strength in a modified up-and-down method (Chaplan et al. (1994) J Neurosci. Meth. 53:55). […]

[5] = previous reports (Hibicke 2020; Yang 2013; Tizabi 2012); cited from earlier work
[6] = target: Human serotonin 5HT2B receptor (Homo sapiens, UniProt P41595); assay: Competitive radioligand binding to 5HT2B receptor membranes
Experimental: Human serotonin 5HT2B receptor membrane preparations were divided into aliquots. On the day of the assay, membranes were diluted at 1:200 in incubation buffer. […] To each well was added 150 μL membrane preparation, 50 μL test compound, non-specific compound, or buffer alone, as well as 50 μL radioligand. The plate was incubated at 35° C. for 90 minutes with gentle agitation. […] For each concentration of drug, non-specific binding was subtracted from total binding to give specific binding. […] Ki was subsequently calculated using the ChengPrusoff equation.

Human serotonin 5HT2B receptor, sequence (P41595 whole entry): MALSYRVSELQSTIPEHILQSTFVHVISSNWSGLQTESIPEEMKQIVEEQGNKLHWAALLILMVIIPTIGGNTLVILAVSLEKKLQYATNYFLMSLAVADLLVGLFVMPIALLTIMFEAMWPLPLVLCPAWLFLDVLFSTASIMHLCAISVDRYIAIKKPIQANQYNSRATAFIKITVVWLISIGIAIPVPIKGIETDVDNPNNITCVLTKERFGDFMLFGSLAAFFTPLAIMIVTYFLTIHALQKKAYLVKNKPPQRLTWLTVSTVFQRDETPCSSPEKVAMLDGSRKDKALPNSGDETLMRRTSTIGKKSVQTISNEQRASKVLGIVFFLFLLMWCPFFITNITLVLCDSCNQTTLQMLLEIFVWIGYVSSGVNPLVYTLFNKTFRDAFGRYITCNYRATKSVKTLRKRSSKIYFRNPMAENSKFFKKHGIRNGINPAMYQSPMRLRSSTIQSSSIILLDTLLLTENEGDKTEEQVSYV

What does the source list for `CCC(Cc1ccc2c(c1)OCO2)NC` (racemic) [MBDB, N-methyl-1-(1,3-benzodioxol-5-yl)-2-aminobutane]?
Immobility ([1]; 5-30 mg/kg IP, 30 min before test): significantly reduced immobility; Extinction acquisition [2]: improved extinction acquisition on the first trial of extinction training on day 2; Increase in time spent in the center vs. control (Open field test (OFT)): ~40%; Serotonergic terminals in cortex and hippocampus destroyed (5-HT/5-HIAA uptake sites): 55-60%

For `COc1cc(CCN)c(OC)cc1Br` [2C-B, 4-Bromo-2,5-dimethoxyphenethylamine], which Climbing behavior ([1]; doses as worded) is on record?
Its Climbing behavior is “Climbing was significantly decreased only in the high-dose group”.

And the Swimming behavior ([1]; doses as worded)?
The Swimming behavior was “significant increase in swimming”.

And the “Animals with maximal (complete) reversal of reserpine-induced pain sensitivity” value [3]?
The value was 100%.

What about the “Effect of repeated doses” value ([4]; 5 mg/kg once daily days 17-23) of the same molecule?
Its value is “sustained beneficial effect”.

And the “Pain thresholds in cisplatin-treated animals” value ([4]; single dose 5 or 20 mg/kg IP, day 17)?
The value was “Pain thresholds were significantly increased within 30 min of a single dose”.

For `CNCC[C@H](Oc1cccc2ccccc12)c1cccs1` [Duloxetine, reference compound], which “Animals with maximal (complete) reversal of reserpine-induced pain sensitivity” value [3] is on record?
The value was 44%.

With `CCN(CC)C(=O)[C@@H]1C=C2c3cccc4[nH]cc(c34)C[C@H]2N(C)C1` [LSD, lysergic acid-N,N-diethylamide] as the molecule, how does the “Reduction in immobility in the FST” value [5] read?
Its value is 38%.

With `CC(N)Cc1ccc2c(c1)OCO2` (stereo not shown) [MDA, reference compound] as the molecule, how does the “Times greater affinity for the 5HT2B receptor compared with methylone” value [6] read?
Its value is 37 times.

For `CNCCC(Oc1ccc(C(F)(F)F)cc1)c1ccccc1` (stereo not shown) [fluoxetine, reference compound], which Swimming behavior ([1]; doses as worded) is on record?
Its Swimming behavior is “significantly increased swimming behavior”.
